≈ marks a conversion by molar mass, not a printed value. Read-outs that look alike come from different tables or passages of the source.
Columns and labels:
Assay type in all cases: cell-based
[1] = tested on: Staphylococcus aureus 45 RAR 2; assay: microbe, parasite or virus in culture; settings: 45RAR2
Description: (§1) The antimicrobial spectra of a number of compounds of the invention were tested by the following method:
(§2) Twelve petri dishes containing successive aqueous dilutions of the test compound mixed with 10 ml of sterilized Brain Heart Infusion agar (Difco 0418-01-5) are prepared. Each plate is inoculated with 1:100 (or 1:10 for slow growing strains, primarily Micrococcus and Streptococcus) dilutions of up to 32 different microorganisms, using a Steers replicator block The inoculated plates are incubated at 35°-37° C. for 20-24 hours. In addition, a control plate, using BHI agar containing no test compound, is prepared and incubated at the beginning and end of each test.
(§3) An additional plate containing a compound having known susceptibility patterns for the organisms being tested and belonging to the same antibiotic class as the test compound is also prepared and incubated as a further control, as well as to provide test-to-test comparability. Erythromycin A was used for this purpose.
(§4) After incubation, each disk is read. The MIC is defined as the lowest concentration of drug yielding no growth, a slight haze, or sparsely isolated colonies on the inoculum spot as compared to the growth control.

[2] = tested on: Staphylococcus epidermidis 3519; assay: In vitro antibacterial activity, agar dilution MIC; settings: S. epidermidis 3519, Brain Heart Infusion agar, 20-24 hours, read-out: MIC
Description: as §1, §2, §3, §4

[3] = tested on: Enterococcus faecium ATCC 8043; assay: In vitro antibacterial activity, agar dilution MIC
Description: as §1, §2, §3, §4

[4] = tested on: Staphylococcus aureus CMX 686B; assay: In vitro antibacterial activity, agar dilution MIC; settings: CMX686B
Description: as §1, §2, §3, §4

[5] = tested on: Escherichia coli H560; assay: In vitro antibacterial activity, agar dilution MIC; settings: E. coli H560, Brain Heart Infusion agar, 20-24 hours, read-out: MIC
Description: as §1, §2, §3, §4

[6] = tested on: Streptococcus pyogenes EES61; assay: In vitro antibacterial activity, agar dilution MIC; settings: S. pyogenes EES61, Brain Heart Infusion agar, 20-24 hours, read-out: MIC
Description: as §1, §2, §3, §4

[7] = tested on: Streptococcus bovis A5169; assay: In vitro antibacterial activity, agar dilution MIC; settings: S. bovis A5169; Brain Heart Infusion agar, 20-24 hours; read-out: MIC
Description: as §1, §2, §3, §4

[8] = tested on: Escherichia coli Juhl; assay: In vitro antibacterial activity, agar dilution MIC
Description: as §1, §2, §3, §4

[9] = tested on: Streptococcus agalactiae CMX 508; assay: In vitro antibacterial activity, agar dilution MIC
Description: as §1, §2, §3, §4

[10] = tested on: Staphylococcus aureus CMX 553; assay: In vitro antibacterial activity, agar dilution MIC
Description: as §1, §2, §3, §4

[11] = tested on: Escherichia coli SS; assay: In vitro antibacterial activity, agar dilution MIC; settings: read-out: MIC
Description: as §1, §2, §3, §4

[12] = tested on: Streptococcus pyogenes 2548 INDUC; assay: In vitro antibacterial activity, agar dilution MIC; settings: S. pyogenes 2548 INDUC, Brain Heart Infusion agar, 20-24 hours, read-out: MIC
Description: as §1, §2, §3, §4

[13] = tested on: Staphylococcus aureus ATCC 6538P; assay: In vitro antibacterial activity, agar dilution MIC; settings: ATCC6538P, S. aureus ATCC 6538P, Brain Heart Infusion agar, 35-37° C., 20-24 hours, read-out: MIC
Description: as §1, §2, §3, §4

[14] = tested on: Streptococcus pyogenes 930 CONST; assay: In vitro antibacterial activity, agar dilution MIC; settings: 930CONST
Description: as §1, §2, §3, §4

[15] = tested on: Staphylococcus aureus 45; assay: In vitro antibacterial activity, agar dilution MIC
Description: as §1, §2, §3, §4

[16] = tested on: Escherichia coli DC-2; assay: In vitro antibacterial activity, agar dilution MIC
Description: as §1, §2, §3, §4

[17] = tested on: Staphylococcus aureus A5177; assay: In vitro antibacterial activity, agar dilution MIC; settings: S. aureus A5177, Brain Heart Infusion agar, 20-24 hours, read-out: MIC
Description: as §1, §2, §3, §4

[18] = tested on: Micrococcus luteus ATCC 9341; assay: In vitro antibacterial activity, agar dilution MIC
Description: as §1, §2, §3, §4

[19] = tested on: Staphylococcus aureus CMX 503A; assay: In vitro antibacterial activity, agar dilution MIC; settings: CMX503A
Description: as §1, §2, §3, §4

[20] = tested on: Micrococcus luteus ATCC 4698; assay: In vitro antibacterial activity, agar dilution MIC
Description: as §1, §2, §3, §4

[21] = tested on: Staphylococcus aureus NCTC 10649; assay: In vitro antibacterial activity, agar dilution MIC; settings: NCTC10649, S. aureus NCTC 10649, Brain Heart Infusion agar, 20-24 hours, read-out: MIC
Description: as §1, §2, §3, §4

[22] = tested on: Staphylococcus aureus 642A; assay: In vitro antibacterial activity, agar dilution MIC; settings: S. aureus 642A, Brain Heart Infusion agar, 20-24 hours, read-out: MIC
Description: as §1, §2, §3, §4

[23] = ATCC8043, E. faecium ATCC 8043, Brain Heart Infusion agar, 20-24 hours, read-out: MIC
[24] = E. coli Juhl, Brain Heart Infusion agar, 20-24 hours, read-out: MIC
[25] = CMX508, S. agalactiae CMX 508, Brain Heart Infusion agar, 20-24 hours, read-out: MIC
[26] = E. coli SS, Brain Heart Infusion agar, 20-24 hours
[27] = S. aureus 45, Brain Heart Infusion agar, 20-24 hours, read-out: MIC
[28] = DC2, E. coli DC-2, Brain Heart Infusion agar, 20-24 hours, read-out: MIC
[29] = ATCC9341, M. luteus ATCC 9341, Brain Heart Infusion agar, 20-24 hours, read-out: MIC
[30] = ATCC4698, M. luteus ATCC 4698, Brain Heart Infusion agar, 20-24 hours, read-out: MIC
[31] = CMX553, S. aureus CMX 553, Brain Heart Infusion agar, 20-24 hours, read-out: MIC

Row | SMILES | MIC [1] [µg/mL] | MIC [2] [µg/mL] | MIC [3, 23] [µg/mL] | MIC [5] [µg/mL] | MIC [6] [µg/mL] | MIC [7] [µg/mL] | MIC [8, 24] [µg/mL] | MIC [9, 25] [µg/mL] | MIC [11, 26] [µg/mL] | MIC [12] [µg/mL] | MIC [13] [µg/mL] | MIC [14] [µg/mL] | MIC [15, 27] [µg/mL] | MIC [16, 28] [µg/mL] | MIC [17] [µg/mL] | MIC [18, 29] [µg/mL] | MIC [20, 30] [µg/mL] | MIC [21] [µg/mL] | MIC [10, 31] [µg/mL] | MIC [22] [µg/mL] | other results
1 | CC[C@H]1OC(=O)[C@H](C)[C@@H](O[C@H]2C[C@@](C)(OC)[C@@H](O)[C@H](C)O2)[C@H](C)[C@@H](O[C@@H]2O[C@H](C)C[C@H](N(C)C)[C@H]2O)[C@](C)(O)C[C@@H](C)[C@@H](N2CCNCC2)[C@H](C)[C@@H](O)[C@]1(C)O [Example 15] | 12.5 (≈ 15.5 µM) | 6.2 (≈ 7.71 µM) | 12.5 (≈ 15.5 µM) | 100 (≈ 124 µM) | 1.56 (≈ 1.94 µM) | 1.56 (≈ 1.94 µM) | > 100 | 1.56 (≈ 1.94 µM) | 1.56 (≈ 1.94 µM) | 100 (≈ 124 µM) | 3.1 (≈ 3.86 µM) | > 100 | 12.5 (≈ 15.5 µM) | > 100 | > 100 | 3.1 (≈ 3.86 µM) | 12.5 (≈ 15.5 µM) | – | – | – | MIC [4]: 6.2 µg/mL (≈ 7.71 µM); MIC ([10]; CMX553): 6.2 µg/mL (≈ 7.71 µM); MIC [19]: 6.2 µg/mL (≈ 7.71 µM)
2 | CC[C@H]1OC(=O)[C@H](C)[C@@H](O[C@H]2C[C@@](C)(OC)[C@@H](O)[C@H](C)O2)[C@H](C)[C@@H](O[C@@H]2O[C@H](C)C[C@H](N(C)C)[C@H]2O)[C@](C)(O)C[C@@H](C)[C@@H](N2CCN(C(=O)c3ccccc3)CC2)[C@H](C)[C@@H](O)[C@]1(C)O [Example 17] | 3.1 (≈ 3.41 µM) | 1.56 (≈ 1.72 µM) | 0.39 (≈ 0.429 µM) | > 100 | 0.39 (≈ 0.429 µM) | 0.39 (≈ 0.429 µM) | > 100 | – | 3.1 (≈ 3.41 µM) | 25 (≈ 27.5 µM) | 1.56 (≈ 1.72 µM) | > 100 | 0.78 (≈ 0.859 µM) | > 100 | 12.5 (≈ 13.8 µM) | – | 0.78 (≈ 0.859 µM) | 1.56 (≈ 1.72 µM) | 1.56 (≈ 1.72 µM) | 1.56 (≈ 1.72 µM) | MIC ([9]; CMX508, read-out: MIC): 0.2 µg/mL (≈ 0.22 µM); MIC ([18]; ATCC9341, read-out: MIC): 0.2 µg/mL (≈ 0.22 µM)
3 | CC[C@H]1OC(=O)[C@H](C)[C@@H](O[C@H]2C[C@@](C)(OC)[C@@H](O)[C@H](C)O2)[C@H](C)[C@@H](O[C@@H]2O[C@H](C)C[C@H](N(C)C)[C@H]2O)[C@](C)(O)C[C@@H](C)[C@@H](N2CCS(=O)(=O)CC2)[C@H](C)[C@@H](O)[C@]1(C)O [Example 22] | 6.2 (≈ 7.27 µM) | 6.2 (≈ 7.27 µM) | 1.56 (≈ 1.83 µM) | > 100 | 0.39 (≈ 0.457 µM) | 0.39 (≈ 0.457 µM) | > 100 | 0.39 (≈ 0.457 µM) | 1.56 (≈ 1.83 µM) | 100 (≈ 117 µM) | 3.1 (≈ 3.63 µM) | > 100 | 6.2 (≈ 7.27 µM) | > 100 | > 100 | 0.39 (≈ 0.457 µM) | 3.1 (≈ 3.63 µM) | 3.1 (≈ 3.63 µM) | 3.1 (≈ 3.63 µM) | 6.2 (≈ 7.27 µM) | –
4 | CC[C@H]1OC(=O)[C@H](C)[C@@H](O[C@H]2C[C@@](C)(OC)[C@@H](N)[C@H](C)O2)[C@H](C)[C@@H](O[C@@H]2O[C@H](C)C[C@H](N(C)C)[C@H]2O)[C@](C)(O)C[C@@H](C)[C@@H](N2CCOCC2)[C@H](C)[C@@H](O)[C@]1(C)O [Example 33] | 0.78 (≈ 0.97 µM) | 0.78 (≈ 0.97 µM) | – | 3.1 (≈ 3.86 µM) | 0.1 (≈ 0.124 µM) | 0.05 (≈ 0.0622 µM) | – | 0.1 (≈ 0.124 µM) | – | 50 (≈ 62.2 µM) | 0.78 (≈ 0.97 µM) | > 100 | – | – | 6.2 (≈ 7.71 µM) | 0.05 (≈ 0.0622 µM) | – | 0.78 (≈ 0.97 µM) | 0.78 (≈ 0.97 µM) | 0.78 (≈ 0.97 µM) | MIC ([3]; ATCC8043, read-out: MIC): 0.2 µg/mL (≈ 0.249 µM); MIC [8]: 12.5 µg/mL (≈ 15.5 µM); MIC [11]: 0.2 µg/mL (≈ 0.249 µM); MIC [15]; 45: 0.39 µg/mL (≈ 0.485 µM); MIC ([16]; DC2): 6.2 µg/mL (≈ 7.71 µM); MIC ([20]; ATCC4698): 0.39 µg/mL (≈ 0.485 µM)
